According to the supplement of paper PMC10307832:

Assays:
Experiment in all cases: relative viability (nuclei count vs DMSO), 5 days (fraction); higher = more cells survive
Pictilisib + Trametinib = compound: CS(=O)(=O)N1CCN(Cc2cc3nc(-c4cccc5[nH]ncc45)nc(N4CCOCC4)c3s2)CC1 [Pictilisib] + CC(=O)Nc1cccc(-n2c(=O)n(C3CC3)c(=O)c3c(Nc4ccc(I)cc4F)n(C)c(=O)c(C)c32)c1 [Trametinib] (partner 0.02 µM)
Outline: (§1)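 Lung cancer cell lines in 1536-well plates were dosed by pin tool the day after seeding, either with one drug alone or with a fixed anchor-drug dose plus five library-drug doses (not always all listed) in √10 steps. After 5 days, cells were fixed and their nuclei stained in one step (final 0.05% Triton X-100, 1% formaldehyde, 1 ug/ml Hoechst), then counted on 4× images. Relative viability is the nuclei count in treated wells divided by that in vehicle wells. Values are medians of duplicate plates.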

Pictilisib + Vorinostat = compound: CS(=O)(=O)N1CCN(Cc2cc3nc(-c4cccc5[nH]ncc45)nc(N4CCOCC4)c3s2)CC1 [Pictilisib] + O=C(CCCCCCC(=O)Nc1ccccc1)NO [Vorinostat] (partner 1 µM)
Outline: as §1

Pictilisib + Olaparib = compound: CS(=O)(=O)N1CCN(Cc2cc3nc(-c4cccc5[nH]ncc45)nc(N4CCOCC4)c3s2)CC1 [Pictilisib] + O=C(c1cc(Cc2n[nH]c(=O)c3ccccc23)ccc1F)N1CCN(C(=O)C2CC2)CC1 [Olaparib] (partner 8 µM)
Outline: as §1

MK-2206 + Bortezomib = compound: NC1(c2ccc(-c3nc4ccn5c(=O)[nH]nc5c4cc3-c3ccccc3)cc2)CCC1 [MK-2206] + CC(C)C[C@H](NC(=O)[C@H](Cc1ccccc1)NC(=O)c1cnccn1)B(O)O [Bortezomib] (partner 0.002 µM)
Outline: as §1

MK-2206 + Decitabine = compound: NC1(c2ccc(-c3nc4ccn5c(=O)[nH]nc5c4cc3-c3ccccc3)cc2)CCC1 [MK-2206] + Nc1ncn([C@H]2C[C@H](O)[C@@H](CO)O2)c(=O)n1 [Decitabine] (partner 2 µM)
Outline: as §1

Cell Line | relative viability (Pictilisib + Trametinib; first compound 0.02 µM) | relative viability (Pictilisib + Trametinib; first compound 0.06325 µM) | relative viability (Pictilisib + Trametinib; first compound 0.6325 µM) | relative viability (Pictilisib + Trametinib; first compound 2 µM) | relative viability (Pictilisib + Vorinostat; first compound 0.02 µM) | relative viability (Pictilisib + Vorinostat; first compound 0.06325 µM) | relative viability (Pictilisib + Vorinostat; first compound 0.6325 µM) | relative viability (Pictilisib + Vorinostat; first compound 2 µM) | relative viability (Pictilisib + Olaparib; first compound 0.02 µM) | relative viability (Pictilisib + Olaparib; first compound 0.06325 µM) | relative viability (Pictilisib + Olaparib; first compound 0.6325 µM) | relative viability (Pictilisib + Olaparib; first compound 2 µM) | relative viability (MK-2206 + Bortezomib; first compound 0.01 µM) | relative viability (MK-2206 + Bortezomib; first compound 0.03162 µM) | relative viability (MK-2206 + Bortezomib; first compound 0.3162 µM) | relative viability (MK-2206 + Bortezomib; first compound 1 µM) | relative viability (MK-2206 + Decitabine; first compound 0.01 µM) | relative viability (MK-2206 + Decitabine; first compound 0.03162 µM) | relative viability (MK-2206 + Decitabine; first compound 0.3162 µM) | relative viability (MK-2206 + Decitabine; first compound 1 µM)
NCI-H838 | 0.431 | 0.453 | 0.374 | 0.246 | 0.731 | 0.632 | 0.648 | 0.53 | 0.775 | 0.718 | 0.603 | 0.293 | 0.822 | 0.916 | 0.836 | 0.751 | 0.472 | 0.494 | 0.496 | 0.451
NCI-H1355 | 0.4 | 0.343 | 0.295 | 0.198 | 0.62 | 0.624 | 0.589 | 0.257 | 0.718 | 0.727 | 0.651 | 0.413 | 1.22 | 1.25 | 1.07 | 1.14 | 0.347 | 0.362 | 0.379 | 0.345
NCI-H1437 | 0.472 | 0.418 | 0.289 | 0.194 | 0.882 | 0.949 | 0.611 | 0.516 | 0.635 | 0.67 | 0.71 | 0.546 | 0.521 | 0.531 | 0.444 | 0.529 | 0.603 | 0.559 | 0.562 | 0.521
NCI-H1650 | 0.595 | 0.662 | 0.506 | 0.382 | 0.566 | 0.666 | 0.819 | 0.358 | 0.593 | 0.759 | 0.761 | 0.691 | 0.196 | 0.195 | 0.207 | 0.2 | 0.465 | 0.419 | 0.441 | 0.469
